Measurements published in patent publication US9139532B2, “Pyrazolyl guanidine F1F0-atpase inhibitors and therapeutic uses thereof” (Lycera Corporation, priority 2010, dated 2015).
Where two headings read alike, the source gives them in different places.

Columns and labels:
Ramos cells = assay: Cytotoxicity in Ramos cells; type: cell-based; settings: cytotoxicity in Ramos cells, read-out: Ramos Cell EC50
F1F0-ATPase = target: T1, F1F0-ATPase (Bos taurus, UniProt P13621); assay: Inhibition of F1F0-ATPase activity in synthesizing ATP; type: biochemical; settings: inhibition of ATP synthesis by F1F0-ATPase; read-out: ATP Syn IC50
T1 construct: from tissue

| Compound | EC50 (Ramos cells) | IC50 (F1F0-ATPase) | EC50 (Ramos cells; Homo sapiens) |
| --- | --- | --- | --- |
| Cc1cc(C(=O)/N=C(\Nc2cc(-c3ccc(F)cc3)n[nH]2)NC(C)(C)C)ccn1 [Compound A-341] | < 10 µM | < 10 µM | – |
| COC(=O)c1cccc(C(=O)/N=C(\Nc2cc(-c3ccc(F)cc3)n[nH]2)NC(C)(C)C)c1 [Compound A-342] | < 10 µM | < 10 µM | – |
| N#CC1(N/C(=N/C(=O)c2ccc(Cl)c(F)c2)Nc2cc(-c3cc(F)cc(F)c3)n[nH]2)CC1 [Compound A-343] | – | < 10 µM | > 10 µM |
| CC(C)OCCCNC(=NC(=O)c1ccc(Cl)c(F)c1)Nc1cc(-c2cc(F)cc(F)c2)n[nH]1 [Compound A-344] | – | < 10 µM | < 10 µM |
| CC(C)(C)c1cc(NC(=NC(=O)c2ccc(Cl)c(F)c2)Nc2cc(-c3cc(F)cc(F)c3)n[nH]2)no1 [Compound A-345] | – | > 10 µM | > 10 µM |
| CCC(C)CN/C(=N/C(=O)c1ccc(Cl)c(F)c1)Nc1cc(-c2cc(F)cc(F)c2)n[nH]1 (centres unmarked) [Compound A-346] | < 10 µM | < 10 µM | – |
| O=C(/N=C(\Nc1cc(-c2cc(F)cc(F)c2)n[nH]1)NC1CCC1)c1ccc(Cl)c(F)c1 [Compound A-347] | < 10 µM | < 10 µM | – |
| CCCC(C)NC(=NC(=O)c1ccc(Cl)c(F)c1)Nc1cc(-c2cc(F)cc(F)c2)n[nH]1 (centres unmarked) [Compound A-348] | – | < 10 µM | < 10 µM |
| CC(C)CCNC(=NC(=O)c1ccc(Cl)c(F)c1)Nc1cc(-c2cc(F)cc(F)c2)n[nH]1 [Compound A-349] | – | < 10 µM | < 10 µM |
| CCC(CC)NC(=NC(=O)c1ccc(Cl)c(F)c1)Nc1cc(-c2cc(F)cc(F)c2)n[nH]1 [Compound A-350] | – | < 10 µM | < 10 µM |
| CC(C)C(C)NC(=NC(=O)c1ccc(Cl)c(F)c1)Nc1cc(-c2cc(F)cc(F)c2)n[nH]1 (centres unmarked) [Compound A-351] | – | < 10 µM | < 10 µM |
| CC(C)CN/C(=N/C(=O)c1ccc(Cl)c(F)c1)Nc1cc(-c2cc(F)cc(F)c2)n[nH]1 [Compound A-352] | < 10 µM | < 10 µM | – |
| CC(C)N/C(=N/C(=O)c1ccc(Cl)c(F)c1)Nc1cc(-c2cc(F)cc(F)c2)n[nH]1 [Compound A-359] | < 10 µM | < 10 µM | – |
| CCCCN/C(=N/C(=O)c1ccc(Cl)c(F)c1)Nc1cc(-c2cc(F)cc(F)c2)n[nH]1 [Compound A-360] | < 10 µM | < 10 µM | – |
| O=C(/N=C(/NCC1CC1)Nc1cc(-c2cc(F)cc(F)c2)n[nH]1)c1ccc(Cl)c(F)c1 [Compound A-361] | < 10 µM | < 10 µM | – |
| CCC(C)NC(=NC(=O)c1ccc(Cl)c(F)c1)Nc1cc(-c2cc(F)cc(F)c2)n[nH]1 (centres unmarked) [Compound A-362] | – | < 10 µM | < 10 µM |
| COCC(C)NC(=NC(=O)c1ccc(F)c(F)c1)Nc1cc(-c2cc(F)cc(F)c2)n[nH]1 (centres unmarked) [Compound A-363] | – | < 10 µM | < 10 µM |
| CC(C)CNC(=NC(=O)c1ccc(F)c(F)c1)Nc1cc(-c2cc(F)cc(F)c2)n[nH]1 [Compound A-364] | – | < 10 µM | < 10 µM |
| O=C(N=C(Nc1cc(-c2cc(F)cc(F)c2)n[nH]1)NC1CCCC1)c1ccc(F)c(F)c1 [Compound A-365] | – | < 10 µM | < 10 µM |
| CC(C)N/C(=N/C(=O)c1ccc(F)c(F)c1)Nc1cc(-c2cc(F)cc(F)c2)n[nH]1 [Compound A-366] | < 10 µM | < 10 µM | – |
| COCC(C)NC(=NC(=O)c1cccc(F)c1)Nc1cc(-c2cc(F)cc(F)c2)n[nH]1 (centres unmarked) [Compound A-367] | < 10 µM | < 10 µM | – |
| CC(C)CN/C(=N/C(=O)c1cccc(F)c1)Nc1cc(-c2cc(F)cc(F)c2)n[nH]1 [Compound A-368] | < 10 µM | < 10 µM | – |
| O=C(N=C(Nc1cc(-c2cc(F)cc(F)c2)n[nH]1)NC1CCCC1)c1cccc(F)c1 [Compound A-369] | – | < 10 µM | < 10 µM |
| CC(C)NC(=NC(=O)c1cccc(F)c1)Nc1cc(-c2cc(F)cc(F)c2)n[nH]1 [Compound A-370] | – | < 10 µM | < 10 µM |
| COCC(C)NC(=NC(=O)c1ccc(OC)cc1F)Nc1cc(-c2ccc(F)cc2)n[nH]1 (centres unmarked) [Compound A-371] | > 10 µM | > 10 µM | – |
| COc1ccc(C(=O)/N=C(/NCC(C)C)Nc2cc(-c3ccc(F)cc3)n[nH]2)c(F)c1 [Compound A-372] | > 10 µM | < 10 µM | – |

| Compound | EC50 (Ramos cells) | IC50 (F1F0-ATPase) | EC50 (Ramos cells; Homo sapiens) |
| --- | --- | --- | --- |
| COc1ccc(C(=O)/N=C(\Nc2cc(-c3ccc(F)cc3)n[nH]2)NC(C)(C)C)c(F)c1 [Compound A-373] | < 10 µM | < 10 µM | – |
| COc1ccc(C(=O)/N=C(\Nc2cc(-c3ccc(F)cc3)n[nH]2)NC(C)C)c(F)c1 [Compound A-374] | < 10 µM | < 10 µM | – |
| CC(C)(C)N/C(=N/C(=O)c1ccc(S(N)(=O)=O)cc1)Nc1cc(-c2ccc(F)cc2)n[nH]1 [Compound A-375] | < 10 µM | < 10 µM | – |
| COCC(C)NC(=NC(=O)c1ccc(F)c(F)c1)Nc1cc(-c2ccc(Cl)cc2)n[nH]1 (centres unmarked) [Compound A-376] | – | < 10 µM | < 10 µM |
| CC(C)CN/C(=N/C(=O)c1ccc(F)c(F)c1)Nc1cc(-c2ccc(Cl)cc2)n[nH]1 [Compound A-377] | < 10 µM | < 10 µM | – |
| O=C(N=C(Nc1cc(-c2ccc(Cl)cc2)n[nH]1)NC1CCCC1)c1ccc(F)c(F)c1 [Compound A-378] | – | < 10 µM | < 10 µM |
| CC(C)NC(=NC(=O)c1ccc(F)c(F)c1)Nc1cc(-c2ccc(Cl)cc2)n[nH]1 [Compound A-379] | – | < 10 µM | < 10 µM |
| COC[C@H](C)N/C(=N/C(=O)c1ccc(Cl)c(F)c1)Nc1cc(-c2ccc(Cl)cc2)n[nH]1 [Compound A-380] | < 10 µM | < 10 µM | – |
| CC(C)CNC(=NC(=O)c1ccc(Cl)c(F)c1)Nc1cc(-c2ccc(Cl)cc2)n[nH]1 [Compound A-381] | – | < 10 µM | < 10 µM |
| O=C(N=C(Nc1cc(-c2ccc(Cl)cc2)n[nH]1)NC1CCCC1)c1ccc(Cl)c(F)c1 [Compound A-382] | – | < 10 µM | < 10 µM |
| CC(C)NC(=NC(=O)c1ccc(Cl)c(F)c1)Nc1cc(-c2ccc(Cl)cc2)n[nH]1 [Compound A-383] | – | < 10 µM | < 10 µM |
| COCC(C)NC(=NC(=O)c1cccc(F)c1)Nc1cc(-c2ccc(Cl)cc2)n[nH]1 (centres unmarked) [Compound A-384] | < 10 µM | < 10 µM | – |
| O=C(/N=C(\Nc1cc(-c2ccc(Cl)cc2)n[nH]1)NC1CCCC1)c1cccc(F)c1 [Compound A-385] | < 10 µM | < 10 µM | – |
| CC(C)N/C(=N/C(=O)c1cccc(F)c1)Nc1cc(-c2ccc(Cl)cc2)n[nH]1 [Compound A-386] | < 10 µM | < 10 µM | – |
| COc1cccc(F)c1C(=O)/N=C(\Nc1cc(-c2ccc(F)cc2)n[nH]1)NC(C)(C)C [Compound A-387] | > 10 µM | < 10 µM | – |
| O=C(/N=C(\Nc1cc(-c2ccc(F)cc2)n[nH]1)NC1CCCC1)c1cccc(F)c1 [Compound A-388] | < 10 µM | < 10 µM | – |
| COCC(C)NC(=NC(=O)c1cccc(F)c1)Nc1cc(-c2ccc(F)cc2)n[nH]1 (centres unmarked) [Compound A-389] | < 10 µM | < 10 µM | – |
| CC(C)N/C(=N/C(=O)c1cccc(F)c1)Nc1cc(-c2ccc(F)cc2)n[nH]1 [Compound A-390] | > 10 µM | < 10 µM | – |
| C[C@@H](CO)N/C(=N/C(=O)c1ccc(F)cc1)Nc1cc(-c2ccc(F)cc2)n[nH]1 [Compound A-391] | > 10 µM | > 10 µM | – |
| COc1cccc(CN/C(=N/C(=O)c2ccc(F)c(C)c2)Nc2cc(-c3ccc(F)cc3)n[nH]2)c1 [Compound A-392] | < 10 µM | < 10 µM | – |
| Cc1cc(C(=O)/N=C(/NCc2ccccc2C)Nc2cc(-c3ccc(F)cc3)[nH]n2)ccc1F [Compound A-393] | < 10 µM | < 10 µM | – |
| COc1cccc(CN/C(=N/C(=O)c2cccc(OC)c2)Nc2cc(-c3ccc(F)cc3)[nH]n2)c1 [Compound A-394] | < 10 µM | < 10 µM | – |
| COc1cccc(C(=O)/N=C(/NCc2ccccc2C)Nc2cc(-c3ccc(F)cc3)[nH]n2)c1 [Compound A-395] | < 10 µM | < 10 µM | – |
| COc1cccc(CN/C(=N/C(=O)c2cc(F)c(F)c(F)c2)Nc2cc(-c3ccc(F)cc3)[nH]n2)c1 [Compound A-396] | < 10 µM | < 10 µM | – |
| Cc1ccccc1CN/C(=N/C(=O)c1cc(F)c(F)c(F)c1)Nc1cc(-c2ccc(F)cc2)[nH]n1 [Compound A-397] | < 10 µM | < 10 µM | – |
| COc1cccc(CN/C(=N/C(=O)c2cccc(F)c2)Nc2cc(-c3ccc(F)cc3)[nH]n2)c1 [Compound A-398] | < 10 µM | < 10 µM | – |
